Laboratory results: US20240116985A1, “STAPLED PEPTIDES AND METHODS THEREOF” (priority 2020, published 2024)

Test: CHI Log D procedure
Format: physicochemical
Conditions: for CHI Log D: pH 7.4

| Structure (SMILES) | CHI Log D | chromatographic logD (pH 7.4, CHI Log D) | further results |
| --- | --- | --- | --- |
| CC(=O)N1CCC[C@]12CC=CCCCC1(CCCC=CCCCCCC[C@@](C)(C(=O)N[C@@H](Cc3ccccc3)C(=O)N[C@@H](Cc3c[nH]c4ccccc34)C(=O)N[C@@H](CCC(N)=O)C(N)=O)NC(=O)[C@H](C(C)C)NC(=O)[C@H](Cc3ccccc3)NC(=O)[C@H](C)NC(=O)[C@H](C)NC(=O)[C@@](C)(CC(C)C)NC(=O)[C@H](CC(=O)O)NC1=O)NC(=O)[C@H](C)NC(=O)[C@H](CC(=O)O)NC2=O (single isomer, unassigned) [I-216, Ac-PL3-Asp-Ala-B5-Asp-DaMeL-Ala-Ala-Phe-Val-S8-Phe-Trp-Gln-NH2] | 2.867 | – | – |
| CC(=O)N1CCC[C@]12CC=CCCCC1(CCCC=CCCCCCC[C@@](C)(C(=O)N[C@@H](Cc3ccc(Cl)cc3)C(=O)N[C@@H](Cc3c[nH]c4ccccc34)C(=O)N[C@@H](CCC(N)=O)C(N)=O)NC(=O)[C@H](C(C)C)NC(=O)[C@H](Cc3ccccc3)NC(=O)[C@H](C)NC(=O)[C@H](C)NC(=O)[C@H](CC(=O)O)NC(=O)[C@H](CC(=O)O)NC1=O)NC(=O)[C@H](C)NC(=O)[C@H](CC(=O)O)NC2=O (single isomer, unassigned) [I-312, Ac-PL3-Asp-Ala-B5-Asp-Asp-Ala-Ala-Phe-Val-S8-4C1F-Trp-Gln-NH2] | – | 2.13 | – |
| CC(=O)N1CCC[C@]12CC=CCCCC1(CCCC=CCCCCCC[C@@](C)(C(=O)N[C@@H](Cc3ccccc3)C(=O)N[C@@H](Cc3c[nH]c4ccccc34)C(=O)N[C@@H](CCC(N)=O)C(N)=O)NC(=O)[C@H](C(C)C)NC(=O)[C@H](Cc3ccccc3)NC(=O)[C@H](C)NC(=O)[C@H](C)NC(=O)[C@H](CCC(=O)O)NC(=O)[C@H](CC(=O)O)NC1=O)NC(=O)[C@H](C)NC(=O)[C@H](Cc1c[nH]cn1)NC2=O (single isomer, unassigned) [I-314, Ac-PL3-His-Ala-B5-Asp-Glu-Ala-Ala-Phe-Val-S8-Phe-Trp-Gln-NH2] | – | 2.34 | – |
| CC(=O)N1CCC[C@]12CC=CCCCC1(CCCC=CCCCCCC[C@@](C)(C(=O)N[C@@H](Cc3ccccc3)C(=O)N[C@@H](Cc3c[nH]c4ccccc34)C(=O)N[C@@H](CCC(N)=O)C(N)=O)NC(=O)[C@H](C(C)C)NC(=O)[C@H](Cc3c[nH]cn3)NC(=O)[C@H](C)NC(=O)[C@H](C)NC(=O)[C@H](CC(=O)O)NC(=O)[C@H](CC(=O)O)NC1=O)NC(=O)[C@H](C)NC(=O)[C@H](CC(=O)O)NC2=O (single isomer, unassigned) [I-320, Ac-PL3-Asp-Ala-B5-Asp-Asp-Ala-Ala-His-Val-S8-Phe-Trp-Gln-NH2] | – | 2.04 | – |
| CC(=O)N1CCC[C@]12CC=CCCCC1(CCCC=CCCCCCC[C@@](C)(C(=O)N[C@@H](Cc3ccccc3)C(=O)N[C@@H](Cc3c[nH]c4ccccc34)C(=O)N[C@@H](CO)C(N)=O)NC(=O)[C@H](C(C)C)NC(=O)[C@H](Cc3ccccc3)NC(=O)[C@H](C)NC(=O)[C@H](C)NC(=O)[C@H](CC(=O)O)NC(=O)[C@H](CC(=O)O)NC1=O)NC(=O)[C@H](C)NC(=O)[C@H](CC(=O)O)NC2=O (single isomer, unassigned) [I-334, Ac-PL3-Asp-Ala-B5-Asp-Asp-Ala-Ala-Phe-Val-S8-Phe-WCHO-Ser-NH2] | – | – | logD (pH 7.4, CHI Log D): 1.86 |
| CC(=O)N1CCC[C@]12CC=CCCCC1(CCCC=CCCCCCC[C@@](C)(C(=O)N[C@@H](Cc3ccccc3)C(=O)N[C@@H](Cc3c[nH]c4ccccc34)C(=O)N[C@@H](CO)C(N)=O)NC(=O)[C@H](C(C)C)NC(=O)[C@H](Cc3ccccc3)NC(=O)[C@H](C)NC(=O)[C@H](C)NC(=O)[C@H](CC(=O)O)NC(=O)[C@H](CC(=O)O)NC1=O)NC(=O)[C@H](C)NC(=O)[C@H](CC(=O)O)NC2=O (single isomer, unassigned) [I-335, Ac-PL3-Asp-Ala-B5-Asp-Asp-Ala-Ala-Phe-Val-S8-Phe-WCHO-Ser-NH2] | 1.928 | – | – |
| CC(=O)N[C@@H](Cc1ccccc1)C(=O)N[C@@H](CC(=O)O)C(=O)N[C@@H](C)C(=O)N[C@]1(C)CCCCCCC=CCOC(=O)N2CC[C@@](C(=O)N[C@@H](Cc3ccccc3)C(=O)N[C@@H](Cc3c[nH]c4ccccc34)C(=O)N[C@@H](CCC(N)=O)C(N)=O)(C2)NC(=O)[C@H](C(C)C)NC(=O)[C@H](Cc2ccccc2)NC(=O)[C@H](C)NC(=O)[C@H](C)NC(=O)[C@H](CCC(=O)O)NC(=O)[C@H](CC(=O)O)NC1=O [I-3, Ac-Phe-Asp-Ala-R8-Asp-Glu-Ala-Ala-Phe-Val-PyrS-Phe-Trp-Gln-NH2] | 1.307 | – | – |
| CC(=O)N[C@@H](Cc1ccccc1)C(=O)N[C@@H](CC(=O)O)C(=O)N[C@@H](C)C(=O)N[C@]1(C)CCCCCCC=CCOC(=O)N2CC[C@@](C(=O)N[C@@H](Cc3ccccc3)C(=O)N[C@@H](Cc3c[nH]c4ccccc34)C(=O)N[C@@H](CCC(N)=O)C(N)=O)(C2)NC(=O)[C@H](C(C)C)NC(=O)[C@H](Cc2ccccc2)NC(=O)[C@H](C)NC(=O)[C@H](C)NC(=O)[C@H](CCC(=O)O)NC(=O)[C@H](CC(=O)O)NC1=O [I-4, Ac-Phe-Asp-Ala-R8-Asp-Glu-Ala-Ala-Phe-Val-PyrS-Phe-Trp-Gln-NH2] | 1.353 | – | – |
| CCCC[C@@H]1NC(=O)[C@H](CC(=O)O)NC(=O)[C@](C)(NC(=O)[C@H](C)NC(=O)[C@H](CC(=O)O)NC(=O)[C@H](Cc2ccccc2)NC(C)=O)CCCCCCC=CCOC(=O)N2CC[C@@](C(=O)N[C@@H](Cc3ccccc3)C(=O)N[C@@H](Cc3c[nH]c4ccccc34)C(=O)N[C@@H](CCC(N)=O)C(N)=O)(C2)NC(=O)[C@H](C(C)C)NC(=O)[C@H](Cc2ccccc2)NC(=O)[C@H](C)NC(=O)[C@H](C)NC1=O [I-14, Ac-Phe-Asp-Ala-R8-Asp-nLeu-Ala-Ala-Phe-Val-PyrS-Phe-Trp-Gln-NH2] | 2.013 | – | – |
| CC(=O)N[C@@H](Cc1ccccc1)C(=O)N[C@@H](CC(=O)O)C(=O)N[C@@H](C)C(=O)N[C@]1(C)CCCCCCC=CCOC(=O)N2CC[C@@](C(=O)N[C@@H](Cc3ccccc3)C(=O)N[C@@H](Cc3c[nH]c4ccccc34)C(=O)N[C@@H](CCC(N)=O)C(N)=O)(C2)NC(=O)[C@H](C(C)C)NC(=O)[C@H](Cc2ccccc2)NC(=O)[C@H](CCCC(=O)O)NC(=O)[C@H](C)NC(=O)[C@H](CC(=O)O)NC(=O)[C@H](CC(=O)O)NC1=O [I-23, Ac-Phe-Asp-Ala-R8-Asp-Asp-Ala-Aad-Phe-Val-PyrS-Phe-Trp-Gln-NH2] | 0.942 | – | – |
| CC(=O)N[C@@H](Cc1ccccc1)C(=O)N[C@@H](CC(=O)O)C(=O)N[C@@H](C)C(=O)N[C@]1(C)CCCCCCC=CCOC(=O)N2CC[C@@](C(=O)N[C@@H](Cc3ccccc3)C(=O)N[C@@H](Cc3c[nH]c4ccccc34)C(=O)N[C@@H](CCC(N)=O)C(N)=O)(C2)NC(=O)[C@H](C(C)C)NC(=O)[C@H](Cc2ccccc2)NC(=O)[C@H](CCCC(=O)O)NC(=O)[C@H](C)NC(=O)[C@H](CC(=O)O)NC(=O)[C@H](CC(=O)O)NC1=O [I-24, Ac-Phe-Asp-Ala-R8-Asp-Asp-Ala-Aad-Phe-Val-PyrS-Phe-Trp-Gln-NH2] | 0.977 | – | – |
| CC(=O)N[C@@H](Cc1ccccc1)C(=O)N[C@@H](CC(=O)O)C(=O)N[C@@H](C)C(=O)N[C@]1(C)CCCCC=CCOC(=O)N(C)CCC[C@@](C)(C(=O)N[C@@H](Cc2ccccc2)C(=O)N[C@@H](Cc2c[nH]c3ccccc23)C(=O)N[C@@H](CCC(N)=O)C(N)=O)NC(=O)[C@H](C(C)C)NC(=O)[C@H](Cc2ccccc2)NC(=O)[C@H](C)NC(=O)[C@H](C)NC(=O)[C@H](CC(=O)O)NC(=O)[C@H](CC(=O)O)NC1=O [I-26, Ac-Phe-Asp-Ala-R6-Asp-Asp-Ala-Ala-Phe-Val-SeN-Phe-Trp-Gln-NH2] | – | 1.25 | – |
| CC(=O)N[C@@H](Cc1ccccc1)C(=O)N[C@@H](CC(=O)O)C(=O)N[C@@H](C)C(=O)N[C@]1(C)CCCN(C)C(=O)OCC=CCCC[C@@](C)(C(=O)N[C@@H](Cc2ccccc2)C(=O)N[C@@H](Cc2c[nH]c3ccccc23)C(=O)N[C@@H](CCC(N)=O)C(N)=O)NC(=O)[C@H](C(C)C)NC(=O)[C@H](Cc2ccccc2)NC(=O)[C@H](C)NC(=O)[C@H](C)NC(=O)[C@H](CC(=O)O)NC(=O)[C@H](CC(=O)O)NC1=O [I-27, Ac-Phe-Asp-Ala-ReN-Asp-Asp-Ala-Ala-Phe-Val-S5-Phe-Trp-Gln-NH2] | – | 1.15 | – |
| CC(=O)N[C@@H](Cc1ccccc1)C(=O)N[C@@H](CC(=O)O)C(=O)N[C@@H](C)C(=O)N[C@]1(C)CCCN(C)C(=O)OCC=CCCCC[C@@](C)(C(=O)N[C@@H](Cc2ccccc2)C(=O)N[C@@H](Cc2c[nH]c3ccccc23)C(=O)N[C@@H](CCC(N)=O)C(N)=O)NC(=O)[C@H](C(C)C)NC(=O)[C@H](Cc2ccccc2)NC(=O)[C@H](C)NC(=O)[C@H](C)NC(=O)[C@H](CC(=O)O)NC(=O)[C@H](CC(=O)O)NC1=O [I-28, Ac-Phe-Asp-Ala-ReN-Asp-Asp-Ala-Ala-Phe-Val-S6-Phe-Trp-Gln-NH2] | 1.219 | – | – |
| CC(=O)N[C@@H](Cc1ccccc1)C(=O)N[C@@H](CC(=O)O)C(=O)N[C@@H](C)C(=O)NC12CN(C1)C(=O)OCC=CCCCCC[C@@](C)(C(=O)N[C@@H](Cc1ccccc1)C(=O)N[C@@H](Cc1c[nH]c3ccccc13)C(=O)N[C@@H](CCC(N)=O)C(N)=O)NC(=O)[C@H](C(C)C)NC(=O)[C@H](Cc1ccccc1)NC(=O)[C@H](C)NC(=O)[C@H](C)NC(=O)[C@H](CC(=O)O)NC(=O)[C@H](CC(=O)O)NC2=O [I-32, Ac-Phe-Asp-Ala-Az-Asp-Asp-Ala-Ala-Phe-Val-S7-Phe-Trp-Gln-NH2] | 1.243 | – | – |
| CC(=O)N[C@@H](Cc1ccccc1)C(=O)N[C@@H](CC(=O)O)C(=O)N[C@@H](C)C(=O)NC12CN(C1)C(=O)OCC=CCCCCC[C@@](C)(C(=O)N[C@@H](Cc1ccccc1)C(=O)N[C@@H](Cc1c[nH]c3ccccc13)C(=O)N[C@@H](CCC(N)=O)C(N)=O)NC(=O)[C@H](C(C)C)NC(=O)[C@H](Cc1ccccc1)NC(=O)[C@H](C)NC(=O)[C@H](C)NC(=O)[C@H](CC(=O)O)NC(=O)[C@H](CC(=O)O)NC2=O [I-33, Ac-Phe-Asp-Ala-Az-Asp-Asp-Ala-Ala-Phe-Val-S7-Phe-Trp-Gln-NH2] | 1.228 | – | – |
